According to PubChem BioAssay AID652076 (The Scripps Research Institute Molecular Screening Center, 2013):
Calls of active or inactive are those of the source. The rule behind the calls is not given here.

Biological target: Cytochrome P450 1A2 (Homo sapiens) (UniProt P05177)
Assay: CYP1A2 enzyme inhibition, late-stage follow-up, biochemical (AID 652076)
Details: Human CYP inhibition panel, LC-MS/MS marker substrate metabolism

Sequence of Cytochrome P450 1A2 (Homo sapiens) (P05177 whole entry, looked up): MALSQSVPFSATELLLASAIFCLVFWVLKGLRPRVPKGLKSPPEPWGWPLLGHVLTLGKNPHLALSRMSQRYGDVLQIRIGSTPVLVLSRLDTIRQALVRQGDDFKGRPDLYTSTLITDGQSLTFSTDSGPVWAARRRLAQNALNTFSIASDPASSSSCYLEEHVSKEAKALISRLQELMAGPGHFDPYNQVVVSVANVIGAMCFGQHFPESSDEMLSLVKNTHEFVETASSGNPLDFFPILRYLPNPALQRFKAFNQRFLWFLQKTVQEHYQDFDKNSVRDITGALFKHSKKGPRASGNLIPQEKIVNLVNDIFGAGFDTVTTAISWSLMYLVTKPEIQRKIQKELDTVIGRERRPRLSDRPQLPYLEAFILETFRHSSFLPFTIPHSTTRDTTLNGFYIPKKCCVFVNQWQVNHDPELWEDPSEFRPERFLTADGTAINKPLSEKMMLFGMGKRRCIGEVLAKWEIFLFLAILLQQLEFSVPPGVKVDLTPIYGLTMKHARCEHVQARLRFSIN

outcome: active
inhibition (CYP1A2, at 10 µM, hits give high values): -9%
Structure (SMILES): COC(=O)c1cc(Br)cnc1N1CCC(NC2CCCCC2)C(O)C1 (configuration not stated)
